Data taken from patent US10316017B2, “COT modulators and methods of use thereof” (Gilead Sciences, Inc., priority 2015, dated 2019).

What was measured:
[1] = test system: TNFα production in LPS-stimulated human monocytes; assay: Cot Monocyte TNFα Cell Based Assay; conditions: Homo sapiens, Monocyte, LPS-stimulated human monocytes, TNFα TR-FRET; read-out: EC50 TNF
How it was run: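 TNFα release quantified by two-antibody TR-FRET, normalised to unstimulated (0%) and LPS-stimulated (100%) wells. Cells got a 1 h compound exposure at 37° C in 0.5% DMSO before 4 h challenge with 50 pg/ml LPS, at 5,000 cells/well.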

[2] = target: T1, human Cot catalytic domain (30-397 amino acids) (Homo sapiens, UniProt P41279); assay: High Throughput Cot Biochemical Assay (KinEASE TR-FRET); conditions: Cot KinEASE TR-FRET, 400 μM ATP; read-out: IC50 HTRF
T1 construct: Purified recombinant human Cot catalytic domain (30-397 amino acids) was purchased from Cama Biosciences; purchased Cama Biosciences (so in the source)
T1 sequence (P41279 30-397): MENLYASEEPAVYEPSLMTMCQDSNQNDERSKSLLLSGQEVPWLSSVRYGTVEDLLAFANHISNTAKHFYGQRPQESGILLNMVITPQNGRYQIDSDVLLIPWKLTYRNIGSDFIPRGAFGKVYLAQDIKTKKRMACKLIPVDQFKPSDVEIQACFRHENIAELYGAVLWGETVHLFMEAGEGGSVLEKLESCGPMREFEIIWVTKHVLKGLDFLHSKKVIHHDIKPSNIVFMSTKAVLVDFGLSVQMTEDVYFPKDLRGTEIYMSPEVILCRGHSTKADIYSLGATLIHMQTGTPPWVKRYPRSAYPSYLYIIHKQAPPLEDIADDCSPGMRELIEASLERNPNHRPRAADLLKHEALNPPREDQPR
How it was run: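 TR-FRET (KinEASE) read-out: Eu-labelled phospho-specific antibody binds XL665-tagged STK3 peptide (1 μM) phosphorylated by 5 nM human Cot kinase domain (residues 30-397). Reaction at 400 μM ATP, pH 7.0 MOPS buffer with 10 mM MgOAc, 1 mM DTT and 0.1% DMSO.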

EC50 [1] [nM] | IC50 [2] [nM] | SMILES
58 | 3 | Cc1c([C@H](Nc2cc(C#N)c3ncc(C#N)c(NCC(C)(C)C)c3c2)c2cn(C3(C(F)(F)F)CC3)nn2)cccc1-n1ccnn1 [Example 1068, (S)-6-(((2-methyl-3-(1H-1,2,3-triazol-1-yl)phenyl)(1-(1-(trifluoromethyl)cyclopropyl)-1H-1,2,3-triazol-4-yl)methyl)amino)-4-(neopentylamino)quinoline-3,8-dicarbonitrile]
54 | 2 | Cc1c([C@H](Nc2cc(Cl)c3ncc(C#N)c(NCC(C)(C)C)c3c2)c2cn(C3(C(F)F)CC3)nn2)cccc1-n1ccnc1 [Example 1069, (S)-6-(((3-(1H-imidazol-1-yl)-2-methylphenyl)(1-(1-(difluoromethyl)cyclopropyl)-1H-1,2,3-triazol-4-yl)methyl)amino)-8-chloro-4-(neopentylamino)quinoline-3-carbonitrile]
272 | 2 | Cc1c([C@H](Nc2cc(Cl)c3ncc(C#N)c(NCC(C)(C)C)c3c2)c2cn(C3(C(F)F)CC3)nn2)cccc1-n1cnnc1 [Example 1070, (S)-8-chloro-6-(((1-(1-(difluoromethyl)cyclopropyl)-1H-1,2,3-triazol-4-yl)(2-methyl-3-(4H-1,2,4-triazol-4-yl)phenyl)methyl)amino)-4-(neopentylamino)quinoline-3-carbonitrile]
215 | 3 | Cc1c([C@H](Nc2cc(Cl)c3ncc(C#N)c(NCC(C)(C)C)c3c2)c2cn(C3(C(F)(F)F)CC3)nn2)cccc1-n1cnnc1 [Example 1071, (S)-8-chloro-6-(((2-methyl-3-(4H-1,2,4-triazol-4-yl)phenyl)(1-(1-(trifluoromethyl)cyclopropyl)-1H-1,2,3-triazol-4-yl)methyl)amino)-4-(neopentylamino)quinoline-3-carbonitrile]
≥ 1000 | 3 | Cc1c([C@H](Nc2cc(C#N)c3ncc(C#N)c(NCC(C)(C)C)c3c2)c2cn(C3(C(F)(F)F)CC3)nn2)cccc1-n1cnnc1 [Example 1072, (S)-6-(((2-methyl-3-(4H-1,2,4-triazol-4-yl)phenyl)(1-(1-(trifluoromethyl)cyclopropyl)-1H-1,2,3-triazol-4-yl)methyl)amino)-4-(neopentylamino)quinoline-3,8-dicarbonitrile]
≥ 1000 | 1 | Cc1c([C@H](Nc2cc(C#N)c3ncc(C#N)c(NCC(C)(C)C)c3c2)c2cn(C3(C(F)F)CC3)nn2)cccc1-n1cnnc1 [Example 1073, (S)-6-(((1-(1-(difluoromethyl)cyclopropyl)-1H-1,2,3-triazol-4-yl)(2-methyl-3-(4H-1,2,4-triazol-4-yl)phenyl)methyl)amino)-4-(neopentylamino)quinoline-3,8-dicarbonitrile]
435 | 48 | CC(C)(C)CNc1c(C#N)cnc2c(Cl)cc(N[C@H](c3cn(C4(C(F)(F)F)CC4)nn3)c3cccc(C#N)c3Cl)cc12 [Example 1074, (S)-8-chloro-6-(((2-chloro-3-cyanophenyl)(1-(1-(trifluoromethyl)cyclopropyl)-1H-1,2,3-triazol-4-yl)methyl)amino)-4-(neopentylamino)quinoline-3-carbonitrile]
185 | 23 | CC(C)(C)CNc1c(C#N)cnc2c(Cl)cc(N[C@H](c3cn(C4(C(F)F)CC4)nn3)c3cccc(C#N)c3Cl)cc12 [Example 1075, (S)-8-chloro-6-(((2-chloro-3-cyanophenyl)(1-(1-(difluoromethyl)cyclopropyl)-1H-1,2,3-triazol-4-yl)methyl)amino)-4-(neopentylamino)quinoline-3-carbonitrile]
182 | 37 | Cc1cc(F)ccc1[C@H](Nc1cc(Cl)c2ncc(C#N)c(NCC(C)(C)C)c2c1)c1cn(C2(C(F)F)CC2)nn1 [Example 1076, (S)-8-chloro-6-(((1-(1-(difluoromethyl)cyclopropyl)-1H-1,2,3-triazol-4-yl)(4-fluoro-2-methylphenyl)methyl)amino)-4-(neopentylamino)quinoline-3-carbonitrile]
77 | 2 | Cc1c([C@H](Nc2cc(C#N)c3ncc(C#N)c(NCC(C)(C)C)c3c2)c2cn(C3(C(F)F)CC3)nn2)cccc1-n1ccnc1 [Example 1077]
175 | 12 | [2H][C@](Nc1cc(C#N)c2ncc(C#N)c(NCC(C)(C)C)c2c1)(c1ccc(F)cc1)c1cn(Cc2c(F)cccc2F)nn1 [Example 1078, (S)-6-(((1-(2,6-difluorobenzyl)-1H-1,2,3-triazol-4-yl)(4-fluorophenyl)methyl-d)amino)-4-(neopentylamino)quinoline-3,8-dicarbonitrile]

Second part, the compound before the results:

SMILES | EC50 [1] [nM] | IC50 [2] [nM]
Cc1c(-c2ncco2)cccc1[C@H](Nc1cc(C#N)c2ncc(C#N)c(NCC(C)(C)C)c2c1)c1cn(C2(C(F)F)CC2)nn1 [Example 1056, (S)-6-(((1-(1-(difluoromethyl)cyclopropyl)-1H-1,2,3-triazol-4-yl)(2-methyl-3-(oxazol-2-yl)phenyl)methyl)amino)-4-(neopentylamino)quinoline-3,8-dicarbonitrile] | 63 | 2
Cc1c([C@H](Nc2cc(Cl)c3ncc(C#N)c(NCC(C)(C)C)c3c2)c2cn(C3(C(F)(F)F)CC3)nn2)cccc1-n1cnnn1 [Example 1057, (S)-8-chloro-6-(((2-methyl-3-(1H-tetrazol-1-yl)phenyl)(1-(1-(trifluoromethyl)cyclopropyl)-1H-1,2,3-triazol-4-yl)methyl)amino)-4-(neopentylamino)quinoline-3-carbonitrile] | 73 | 4
CC(C)(C)CNc1c(C#N)cnc2c(Cl)cc(N[C@@H](c3ccccc3)c3cn(C4(C(F)(F)F)CC4)nn3)cc12 [Example 1059, (S)-8-chloro-4-(neopentylamino)-6-((phenyl(1-(1-(trifluoromethyl)cyclopropyl)-1H-1,2,3-triazol-4-yl)methyl)amino)quinoline-3-carbonitrile] | 553 | 75
Cc1ccccc1[C@H](Nc1cc(Cl)c2ncc(C#N)c(NCC(C)(C)C)c2c1)c1cn(C2(C(F)F)CC2)nn1 [Example 1060, (S)-8-chloro-6-(((1-(1-(difluoromethyl)cyclopropyl)-1H-1,2,3-triazol-4-yl)(o-tolyl)methyl)amino)-4-(neopentylamino)quinoline-3-carbonitrile] | 311 | 33
Cc1ccccc1[C@H](Nc1cc(Cl)c2ncc(C#N)c(NCC(C)(C)C)c2c1)c1cn(C2(C(F)(F)F)CC2)nn1 [Example 1061, (S)-8-chloro-4-(neopentylamino)-6-((o-tolyl(1-(1-(trifluoromethyl)cyclopropyl)-1H-1,2,3-triazol-4-yl)methyl)amino)quinoline-3-carbonitrile] | 620 | 85
Cc1c([C@H](Nc2cc(Cl)c3ncc(C#N)c(NCC(C)(C)C)c3c2)c2cn(C3(C(F)F)CC3)nn2)cccc1-n1cnnn1 [Example 1062, (S)-8-chloro-6-(((1-(1-(difluoromethyl)cyclopropyl)-1H-1,2,3-triazol-4-yl)(2-methyl-3-(1H-tetrazol-1 yl)phenyl)methyl)amino)-4-(neopentylamino)quinoline-3-carbonitrile] | 70 | 3
Cc1c([C@H](Nc2cc(Cl)c3ncc(C#N)c(NCC(C)(C)C)c3c2)c2cn(C3(C(F)(F)F)CC3)nn2)cccc1-n1ccnn1 [Example 1063, (S)-8-chloro-6-(((2-methyl-3-(1H-1,2,3-triazol-1-yl)phenyl)(1-(1-(trifluoromethyl)cyclopropyl)-1H-1,2,3-triazol-4-yl)methyl)amino)-4-(neopentylamino)quinoline-3-carbonitrile] | 73 | 6
CC(C)(C)CNc1c(C#N)cnc2c(C#N)cc(N[C@@H](c3ccccc3)c3cn(C4(C(F)F)CC4)nn3)cc12 [Example 1064, (S)-6-(((1-(1-(difluoromethyl)cyclopropyl)-1H-1,2,3-triazol-4-yl)(phenyl)methyl)amino)-4-(neopentylamino)quinoline-3,8-dicarbonitrile] | 103 | 12
CC(C)(C)CNc1c(C#N)cnc2c(C#N)cc(N[C@@H](c3ccccc3)c3cn(C4(C(F)(F)F)CC4)nn3)cc12 [Example 1065, (S)-4-(neopentylamino)-6-((phenyl(1-(1-(trifluoromethyl)cyclopropyl)-1H-1,2,3-triazol-4-yl)methyl)amino)quinoline-3,8-dicarbonitrile] | 237 | 22
Cc1ccccc1[C@H](Nc1cc(C#N)c2ncc(C#N)c(NCC(C)(C)C)c2c1)c1cn(C2(C(F)F)CC2)nn1 [Example 1066, (S)-6-(((1-(1-(difluoromethyl)cyclopropyl)-1H-1,2,3-triazol-4-yl)(o-tolyl)methyl)amino)-4-(neopentylamino)quinoline-3,8-dicarbonitrile] | 85 | 10
Cc1ccccc1[C@H](Nc1cc(C#N)c2ncc(C#N)c(NCC(C)(C)C)c2c1)c1cn(C2(C(F)(F)F)CC2)nn1 [Example 1067, (S)-4-(neopentylamino)-6-((o-tolyl(1-(1-(trifluoromethyl)cyclopropyl)-1H-1,2,3-triazol-4-yl)methyl)amino)quinoline-3,8-dicarbonitrile] | 213 | 17
